Among the data in ChEMBL document CHEMBL1131818, “Novel quinolinequinone antitumor agents: structure-metabolism studies with NAD(P)H:quinone oxidoreductase (NQO1)” (Bioorg Med Chem Lett, 1999) are NADH oxidation values, retold here.

A short description of the data set: Metabolism by recombinant human NAD(P)H:quinone oxidoreductase (NQO1) was evaluated. It is filed as ADME.
As to `COC1=CC(=O)c2nc(-c3ccccc3)ccc2C1=O`, the NADH oxidation is 28.8 µM/min/mg.
The value for `COC1=CC(=O)c2nc(-c3cccs3)ccc2C1=O` was 32.1 µM/min/mg; that for `COC1=CC(=O)c2nc(-c3ccc4ccccc4c3)ccc2C1=O` was 14 µM/min/mg.
Then `COC1=CC(=O)c2nc(-c3ccc(C)cn3)ccc2C1=O`, with 45.7 µM/min/mg; and `COC1=CC(=O)c2ncccc2C1=O`, with 58.7 µM/min/mg.
Turning to `COC1=CC(=O)c2nc(-c3cc4ccccc4o3)ccc2C1=O`, the NADH oxidation was determined as 33.3 µM/min/mg.
Then `COC1=CC(=O)c2nc(-c3cccc4ccccc34)ccc2C1=O`, with 25.1 µM/min/mg; and `COC1=CC(=O)c2nc(-c3ccccn3)ccc2C1=O`, with 50.5 µM/min/mg; and `COC1=CC(=O)c2c(cc(C)n2C)C1=O`, with 5.31 µM/min/mg.
Take `COC1=CC(=O)c2nc(-c3ccc(C)cc3)ccc2C1=O`: the NADH oxidation is 19.2 µM/min/mg.
The value for `COC1=CC(=O)c2nc(-c3ccc(-c4ccccc4)cc3)ccc2C1=O` was 4.75 µM/min/mg; that for `O=C1C(N2CCCC2)=CC(=O)c2ncccc21` was 26.2 µM/min/mg.
The value for `COC1=CC(=O)c2nc(Cl)ccc2C1=O` was 100 µM/min/mg; that for `COC1=C(N)C(=O)c2nc(-c3nc(C(=O)O)c(C)c(-c4ccc(OC)c(OC)c4O)c3N)ccc2C1=O` [STREPTONIGRIN] was 47.4 µM/min/mg.
